Measured values: the supplement of paper PMC5412046
Structures can show the parent of a compound that is named as a salt.

How the values were obtained:
[1] = test system: SB.mhdgc-1; test: area under the dose-response curve of % viability (trapezoidal, 11 doses) (% viability x log10 concentration); higher = less cytotoxic; settings: SB.mhdgc-1 (hereditary c.1380delA CDH1 gastric cancer)
How it was run: (§1)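 A pintool delivered 23 nL of compound in DMSO to 1536-well plates holding 500 hereditary or sporadic patient-derived gastric cancer cells in 5 μL medium per well, at 11 concentrations in threefold steps. Following 48 h of exposure, cells were treated with CellTiter-Glo for 30 min at room temperature, and plates were read for luminescence on a ViewLux. The reported measure is viability normalised to DMSO, either at the top concentration or as trapezoidal area under the curve.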

[2] = test system: SB.msgc-1; test: as above; settings: SB.msgc-1 (sporadic gastric cancer)
How it was run: as §1

[3] = test system: SB.mhdgc-1; test: viability at highest tested concentration (MAXR) relative to DMSO; higher = less cytotoxic; settings: SB.mhdgc-1 (hereditary c.1380delA CDH1 gastric cancer)
How it was run: as §1

[4] = test system: SB.msgc-1; test: as above; settings: SB.msgc-1 (sporadic gastric cancer)
How it was run: as §1

SMILES | area under the dose-response curve [1] | area under the dose-response curve [2] | viability [3] | viability [4]
COc1ccc(Cc2nccc3cc(OC)c(OC)cc23)cc1OC [Papaverine hydrochloride] (top concentration 46.0829 µM) | 575 | 536 | 22.3% | 83.5%
CCCCCCCCCCCCCC(=O)N[C@H](CO)[C@H](O)c1ccc([N+](=O)[O-])cc1 [D-NMAPPD] (top concentration 46.0829 µM) | 497 | 499 | 45.8% | 75.2%
COC(=O)[C@H](Cc1ccccc1)NC(=O)[C@@H](N)CC(=O)O [Aspartame] (top concentration 46.0829 µM) | 543 | 579 | 34% | 98.2%
O=C(C[C@@H]1C/C=C\CCC(=O)O[C@H](c2ccccc2)CNC1=O)NCc1ccc(Cl)cc1 [Robotnikinin] (top concentration 46.0829 µM) | 431 | 485 | 70.3% | 61.1%
O=C(O)C1CCCN(CCC=C(c2ccccc2)c2ccccc2)C1 (stereo unspecified) (top concentration 46.0829 µM) | 506 | 523 | 47.8% | 60.3%
Cc1ccc(C(=O)c2cc(O)c(O)c([N+](=O)[O-])c2)cc1 [Tolcapone] (top concentration 46.0829 µM) | 523 | 459 | 40.4% | 25.3%
O=C(c1ccccc1)c1ccc2n1CCC2C(=O)O (stereo unspecified) [Ketorolac] (top concentration 46.0829 µM) | 453 | 408 | 31.4% | 37.5%
Nc1nc(Nc2ccc([S+](N)(=O)[O-])cc2)nn1C(=O)c1c(F)cccc1F (top concentration 46.0829 µM) | 459 | 433 | 63.7% | 49.1%
OC(CN1CCN(c2cccc(Cl)c2)CC1)C(c1ccccc1)c1ccccc1 (stereo unspecified) (top concentration 46.0829 µM) | 501 | 489 | 52.9% | 51.9%
CN1CCCN=C1/C=C/c1cccs1.O=C(O)c1cc2ccccc2c(Cc2c(O)c(C(=O)O)cc3ccccc23)c1O [Pyrantel pamoate] (top concentration 46.0829 µM) | 575 | 495 | 98.9% | 85.2%
NC(=O)Nc1cc(-c2cccc(F)c2)sc1C(=O)N[C@H]1CCCNC1 [AZD-7762] (top concentration 46.0829 µM) | 302 | 389 | 2.9% | 44.1%
CN(C)Cc1cccc(N/C(=C2\C(=O)Nc3cc(C(=O)N(C)C)ccc32)c2ccccc2)c1 (top concentration 46.0829 µM) | 316 | 452 | 6.66% | 35.3%
COc1ccc([S+](=O)([O-])Nc2cccnc2Nc2ccc(O)cc2)cc1 [E-7010] (top concentration 46.0829 µM) | 474 | 378 | 47% | 40.2%
C[C@@H]1C[C@H]2[C@@H]3\C=C(C)/C4=C/C5=C(C[C@]4(C)[C@H]3[C@@H](O)C[C@]2(C)[C@@]1(O)C(=O)COC(C)=O)C=N[N]5C6=CC=CC=C6 [Cortivazol] (top concentration 46.0829 µM) | 412 | 396 | 8.44% | 8.26%
CN[C@@H](C)C(=O)N[C@H]1CCCC[C@H]2CC[C@@H](C(=O)N[C@@H](c3ccccc3)c3cn(CCCCc4ccc(CCCCn5cc([C@@H](NC(=O)[C@@H]6CC[C@@H]7CCCC[C@H](NC(=O)[C@H](C)NC)C(=O)N76)c6ccccc6)nn5)cc4)nn3)N2C1=O [SM-164] (top concentration 46.0829 µM) | 283 | 449 | 2.4% | 49.1%
CCC[S+](=O)([O-])Nc1ccc(F)c(C(=O)c2c[nH]c3ncc(Cl)cc23)c1F [PLX-4720] (top concentration 46.0829 µM) | 459 | 521 | 66.8% | 44.8%
CC1=C(CC/C(C)=C/CCC2=CCC(C3=CC(=O)OC3O)OC2O)C(C)(C)CCC1 (stereo unspecified) [Manoalide] (top concentration 46.0829 µM) | 557 | 536 | 130% | 89.9%

SMILES | area under the dose-response curve [1] | area under the dose-response curve [2] | viability [3] | viability [4]
C[C@H](Cc1ccc(O)c(O)c1)[C@@H](C)Cc1ccc(O)c(O)c1 [Masoprocol] (top concentration 46.0829 µM) | 567 | 526 | 97.7% | 72.6%
Cn1c(=O)c2[nH]cnc2n(C)c1=O [Theophyllamine] (top concentration 46.0829 µM) | 560 | 614 | 87.8% | 123%
COc1cc2nccc(Oc3ccc(NC(=O)Nc4cc(C)on4)c(Cl)c3)c2cc1OC [Tivozanib] (top concentration 46.0829 µM) | 460 | 446 | 26.3% | 48.1%
COc1cc(OC)c(OC)cc1C=O [Asaraldehyde] (top concentration 46.0829 µM) | 520 | 510 | 117% | 106%
O=[N+]([O-])c1ccc(Nc2ccccc2-c2ccccc2)c2nonc12 (top concentration 46.0829 µM) | 423 | 436 | 35.7% | 42.5%
Cc1ccccc1C(C(=O)NC1CCCCC1)N(C(=O)CNc1ccc(C#N)cc1)c1cccc(F)c1 (stereo unspecified) [IDH-C227] (top concentration 46.0829 µM) | 568 | 505 | 33% | 48.6%
Cc1cccc(N(C)C(=S)Oc2ccc3ccccc3c2)c1 [Tolnaftate] (top concentration 46.0829 µM) | 490 | 542 | 85.8% | 84.4%
CN(CCOc1ccc(CC2SC(=O)NC2=O)cc1)c1ccccn1 (stereo unspecified) [Rosiglitazone] (top concentration 46.0829 µM) | 586 | 467 | 109% | 69.1%
CC1(C)O[C@@H]2C[C@H]3[C@@H]4C[C@H](F)C5=CC(=O)C=C[C@]5(C)[C@@]4(F)[C@@H](O)C[C@]3(C)[C@]2(C(=O)CO)O1 [Fluocinolone acetonide] (top concentration 46.0829 µM) | 454 | 558 | 48.3% | 67.3%
CCN(CC)CCCC(C)Nc1nc(C)cc(Nc2ccc3nc(C)cc(N)c3c2)n1 (stereo unspecified) (top concentration 46.0829 µM) | 502 | 503 | 93.6% | 104%
CC=CC1=C(C(=O)O)N2C(=O)[C@@H](NC(=O)[C@H](N)c3ccc(O)cc3)[C@H]2SC1.O [Cefprozil] (top concentration 46.0829 µM) | 516 | 573 | 4.42% | 92.3%
NC[C@H](O)c1ccc(O)c(O)c1 [Noradrenaline bitartrate monohydrate] (top concentration 46.0829 µM) | 465 | 479 | 67.7% | 86%
COC1=C(OC)C(=O)C(C/C=C(\C)CC/C=C(\C)CC/C=C(\C)CC/C=C(\C)CC/C=C(\C)CC/C=C(\C)CC/C=C(\C)CC/C=C(\C)CC/C=C(\C)CCC=C(C)C)=C(C)C1=O [Coenzyme Q10] (top concentration 46.0829 µM) | 544 | 563 | 92.7% | 117%
C[C@@H](c1ncncc1F)[C@](O)(Cn1cncn1)c1ccc(F)cc1F [Voriconazole] (top concentration 46.0829 µM) | 558 | 523 | 97.7% | 89.1%
COc1cccc2c1C(=O)c1c(O)c3c(c(O)c1C2=O)C[C@@](O)(C(=O)CO)C[C@@H]3O[C@H]1C[C@H](N)[C@H](O[C@H]2CCCCO2)[C@H](C)O1 [Pirarubicin] (top concentration 46.0829 µM) | 367 | 437 | 22.4% | 31.3%
CN[S+](=O)([O-])Cc1ccc2[nH]cc(CCN(C)C)c2c1 [Sumatriptan succinate] (top concentration 46.0829 µM) | 558 | 519 | 79.8% | 97.6%
NC(=O)c1noc([C@H](CCCC2CCCCC2)CC(=O)NO)n1 (top concentration 46.0829 µM) | 570 | 563 | 41% | 69.5%
